Measurements from patent US7148212B2, “Process for production of steroid crystals, steroid crystals obtained thereby and pharmaceutical preparations containing them” (Schering AG, priority 2002, dated 2006).
Marks after values point to notes of the source that are not given here.

Experiment: Particle size distribution (Sympatec HELOS, dry dispersion)
Format: physicochemical
Method: Particle Size Distribution:
• Sympatec HELOS (H0445), dry dispersion system (RODOS), pressure 2 bar Content Uniformity Test: • Content Determination according to USP/Ph. Eur. for individual capsules after elution through HPLC with external calibration • Column: LiChrosphere 5μ RP-18 encapped, 150×3 mm • Eluent: acetonitrile/water=45/55 • Flow: 1 ml/min • Detection UV (272 nm) Active Ingredient Release: • Active ingredient release measured in 1000 mL water with 0.3% sodium dodecyl sulfate, 100 rpm • Content Determination y HPLC with external calibration • Column: LiChrosphere 5μ RP-18 encapped, 150×3 mm • Eluent: acetonitrile/water=45/55 • Flow: 1 ml/min • Detection UV (272 nm)

[1] = Example 1 microcrystals, ethyl acetate, three cycles 55/20° C., air dried
[2] = after drying on filter (ethyl acetate suspension)
[3] = after spray-drying (ethanol/water suspension)
[4] = suspension in ethanol/water (90/10) with 10% by weight microcrystalline J956, before drying
[5] = suspension in ethyl acetate with 14% by weight microcrystalline J956, before drying

With CCNC(=O)ON=Cc1ccc(C2CC3(C)C(CCC3(COC)OC)C3CCC4=CC(=O)CCC4=C23)cc1 (stereo not drawn) [J956, 11β-{4-[(ethylaminocarbonyl)oximinomethyl]phenyl}-17β-methoxy-17α-methoxymethyl-estra-4,9-dien-3-one] the “Particle size X10” value [1] was 2.62 μm, the “Particle size X50” value [1] was 10.4 μm and the “Particle size X10” value [2] was 2.7 μm. The “Particle size X50” value [2] was 10.61 μm, the “Particle size X90” value [2] was 24 μm and the “Particle size X10” value [3] was 2.25 μm. For the same molecule, the “Particle size X50” value [3] was 8.03 μm, the “Particle size X90” value [3] was 17 μm and the “Particle size X100” value [3] was 43 μm. The “Particle size X10” value [4] was 2.11 μm, the “Particle size X50” value [4] was 8.6 μm and the “Particle size X90” value [4] was 19 μm. The “Particle size X100” value [4] was 51 μm, the “Particle size X10” value [5] was 2.62*** μm and the “Particle size X50” value [5] was 10.4 μm. The “Particle size X90” value [5] was 24 μm.
